This is an account of results in patent US20210346312A1, “Flat Product for Microbiological Sanitation of the Urogenital Tract” (Tecuro Medical GmbH, priority 2018, published 2021).

This data set relates to Reconstituted human 3D EpiVaginal models. The data set can be described thus: Cytotoxicity test (MTT assay, based on DIN ISO 10993-5). It counts as cell-based. The note with it: positive control, 1%, typical value. Here is the method:
To determine the compatibility of a planar product for treatment of the urogenital tract, the Cytotoxicity Test described below can be used. It is based on the standard DIN ISO 10993-5.
Reconstituted human 3D EpiVaginal models (e.g., MatTek) are used. To this end, an element of 6 mm in diameter from a planar product according to the invention is topically applied to the 3D EpiVaginal skin models and incubated on the models for 3 and 18 hours. Skin models treated with sterile water are used as negative control, and skin models treated with the […] surfactant Triton X-100 (1%) are used as positive control. The vitality of the skin models is evaluated in the MTT assay (3-(4,5-dimethylthiazol-2-yl)-2,5-diphenyltetrazolium bromide) (see Stockert et al. Acta Histochemica 120: 159-167 (2018), doi: 10.1016/j.acthis.2018.02.005; Chacon et al. In Vitro Methods in Pharmaceutical Research, ISBN 9780080534602 and https://en.wikipedia.org/wiki/MTT_assay). This involves setting the vitality value of the negative control to 100%. […] According to the invention, what is considered to be an acceptable value is typically a vitality of >80% after 18 h.

Consider Triton X-100, for which the “vitality after 3 h of incubation” value (3 h) was 25%. For the same substance, the “vitality after 18 h” value (18 h) is listed as “less than 10%”.
